| melting point | Structure (SMILES) |
| --- | --- |
| 250 °C | CC(=O)NCCNc1nc(-c2ccccc2)nc2[nH]c(C(=O)N3CCOCC3)cc12 [26.1, N-{2-[6-(Morpholine-4-carbonyl)-2-phenyl-7H-pyrrolo[2,3-d]pyrimidin-4-ylamino]-ethyl}-acetamide] |
| 140 to 145 °C (dec.) | CC(=O)NCCNc1nc(-c2ccccc2)nc2[nH]c(C(=O)N3CCC(O)(C(C)C)CC3)cc12 [26.4, N-{2-[6-(4-Hydroxy4-isopropylpiperidine-1-carbonyl)-2-phenyl-7H-pyrrolo[2,3-d]pyrimidin-4-ylamino]-ethyl}-acetamide] |
| 158 to 162 °C (dec.) | CC(=O)NCCNc1nc(-c2ccccc2)nc2[nH]c(C(=O)N3CCC(O)(c4ccccc4)CC3)cc12 [26.7, N-{2-[6-(4-Hydroxy4-phenylpiperidine-1-carbonyl)-2-phenyl-7H-pyrrolo[2,3-d]pyrimidin-4-ylamino]-ethyl}-acetamide] |
| 140 to 145 °C (dec.) | CC(=O)NCCNc1nc(-c2ccccc2)nc2[nH]c(C(=O)N3CCC(O)(Cc4ccccc4)CC3)cc12 [26.8, N-{2-[6-(4-Benzyl-4-hydroxypiperidine-1-carbonyl)-2-phenyl-7H-pyrrolo[2,3-d]pyrimidin-4-ylamino]-ethyl}-acetamide] |
| 200 to 205 °C (dec.) | NC(=O)CNc1nc(-c2ccccc2)nc2[nH]c(C(=O)N3CCC(O)(c4ccc(Cl)cc4)CC3)cc12 [26.9, 2-{6-[4-(4-Chlorophenyl)-4-hydroxypiperidine-1-carbonyl]-2-phenyl-7H-pyrrolo[2,3-d]pyrimidin-4-ylamino}-acetamide] |
| 145 to 150 °C | CC(=O)NCCNc1nc(-c2ccccc2)nc2[nH]c(C(=O)N3CCC(O)(c4cccc(C(F)(F)F)c4)CC3)cc12 [26.10] |
| 150 to 153 °C | CC(=O)NCCNc1nc(-c2ccccc2)nc2[nH]c(C(=O)N3CCC(O)(c4ccc(F)cc4)CC3)cc12 [26.18, N-(2-{6-[4-(4-Fluorophenyl)4-hydroxypiperidine-1-carbonyl]-2-phenyl-7H-pyrrolo[2,3-d]pyrimidin-4-ylamino}-ethyl)-acetamide] |
| 150 to 155 °C (dec.) | CC(=O)NCCNc1nc(-c2ccccc2)nc2[nH]c(C(=O)N3CCC(C#N)(c4ccccc4)CC3)cc12 [26.19, N-{2-[6-(4-Cyano-4-phenylpiperidine-1-carbonyl)-2-phenyl-7H-pyrrolo[2,3-d]pyrimidin-4-ylamino]-ethyl}-acetamide] |
| 254 to 256 °C | CC(=O)NCCNc1nc(-c2ccccc2)nc2[nH]c(C(=O)N3CCC(c4ccccc4)(c4ccccc4)CC3)cc12 [26.25, N-{2-[6-(4,4-Diphenylpiperidine-1-carbonyl)-2-phenyl-7H-pyrrolo[2,3-d]pyrimidin-4-ylamino]-ethyl}-acetamide] |
| 135 to 138 °C | COC1(c2ccccc2)CCN(C(=O)c2cc3c(NCCNC(C)=O)nc(-c4ccccc4)nc3[nH]2)CC1 [26.27, N-{2-[6-(4-Methoxy-4-phenylpiperidine-1-carbonyl)-2-phenyl-7H-pyrrolo[2,3-d]pyrimidin-4-ylamino]-ethyl}-acetamide] |
| 283 to 284 °C (dec.) | CC(=O)NCCNc1nc(-c2ccccc2)nc2[nH]c(C(=O)N3CCC(Cc4ccc(F)cc4)CC3)cc12 [26.28, N-(2-{6-[4-(4-Fluorobenzyl)-piperidine-1-carbonyl]-2-phenyl-7H-pyrrolo[2,3-d]pyrimidin-4-ylamino}-ethyl)-acetamide] |
| 135 to 145 °C (dec.) | CC(=O)NCCNc1nc(-c2ccccc2)nc2[nH]c(C(=O)N3CCC(C(O)c4ccc(F)cc4)CC3)cc12 (stereo not shown) [26.29] |
| 223 to 226 °C (dec.) | CC(=O)NCCNc1nc(-c2ccccc2)nc2[nH]c(C(=O)N3CCN(c4ccccn4)CC3)cc12 [26.35, N-{2-[2-Phenyl-6-(4-pyridin-2-yl-piperazine-1-carbonyl)-7H-pyrrolo[2,3-d]pyrimidin-4-ylamino]-ethyl}-acetamide] |
| 140 to 145 °C | CC(=O)NCCNc1nc(-c2ccccc2)nc2[nH]c(C(=O)N3CCCC(C)(c4ccccc4)C3)cc12 (stereo not shown) [26.36, N-{2-[6-(3-Methyl-3-phenylpiperidine-1-carbonyl)-2-phenyl-7H-pyrrolo[2,3-d]pyrimidin-4-ylamino]-ethyl}-acetamide] |
| 225 to 228 °C | CC(=O)NCCNc1nc(-c2ccccc2)nc2[nH]c(C(=O)N3CCN(c4ncccc4C(F)(F)F)CC3)cc12 [26.37, N-(2-{2-Phenyl-6-[4-(3-trifluoromethylpyridin-2-yl)-piperazine-1-carbonyl]-7H-pyrrolo[2,3-d]pyrimidin-4-ylamino}-ethyl)-acetamide] |

The remaining lines, values behind:

| Structure (SMILES) | melting point |
| --- | --- |
| CC(=O)NCCNc1nc(-c2ccccc2)nc2[nH]c(C(=O)N3C[C@@H](C)NC[C@@H]3C)cc12 (relative stereo) [26.31, N-{2-[6-(trans-2,5-Dimethylpiperazine-1-carbonyl)-2-phenyl-7H-pyrrolo[2,3-d]pyrimidin-4-ylamino]-ethyl}-acetamide] | 120 to 125 °C |
| COC(=O)c1cccc(OCc2cc3c(NCCNC(C)=O)nc(-c4ccccc4)nc3[nH]2)c1 [9.19, 3-[4-(2-Acetylaminoethylamino)-2-phenyl-7H-pyrrolo[2,3-d]pyrimidin-6-ylmethoxy]-benzoic acid methyl ester] | 80 to 85 °C (dec.) |
| CC(=O)NCCNc1nc(-c2ccccc2)nc2[nH]c(/C=N/OCc3ccccc3)cc12 [22.1, N-{2-[6-(Benzyloxyiminomethyl)-2-phenyl-7H-pyrrolo[2,3-d]pyrimidin-4-ylamino]-ethyl}-acetamide] | 83 to 87 °C (dec.) |
| CC(=O)NCCNc1nc(-c2ccccc2)nc2[nH]c(C(=O)Nc3ccc(Oc4ccccc4)cc3)cc12 [26.2, 4-(2-Acetylaminoethylamino)-2-phenyl-7H-pyrrolo[2,3-d]pyrimidine-6-carboxylic acid (4-phenoxyphenyl)-amide] | 250 to 257 °C (dec.) |
| CC(=O)NCCNc1nc(-c2ccccc2)nc2[nH]c(C(=O)N3CCN(CCc4ccccc4)CC3)cc12 [26.11, N-{2-[6-(4-Phenethylpiperazine-1-carbonyl)-2-phenyl-7H-pyrrolo[2,3-d]pyrimidin-4-ylamino]-ethyl}-acetamide] | 226 to 228 °C |
| CC(=O)NCCNc1nc(-c2ccccc2)nc2[nH]c(C(=O)N3CCN(CCCN4CCOCC4)CC3)cc12 [26.12, N-(2-{6-[4-(3-Morpholin-4-ylpropyl)-piperazine-1-carbonyl]-2-phenyl-7H-pyrrolo[2,3-d]pyrimidin-4-ylamino}-ethyl)-acetamide] | 225 to 230 °C (dec.) |
| CC(=O)NCCNc1nc(-c2ccccc2)nc2[nH]c(C(=O)N3CC=C(c4ccc(Cl)cc4)CC3)cc12 [26.13, N-(2-{6-[4-(4-Chlorophenyl)-3,6-dihydro-2H-pyridine-17carbonyl]-2-phenyl-7H-pyrrolo[2,3-d]pyrimidin-4-ylamino}-ethyl)-acetamide] | 172 to 175 °C |
| CC(=O)NCCNc1nc(-c2ccccc2)nc2[nH]c(C(=O)N3CCN(Cc4ccccc4)CC3)cc12 [26.14, N-{2-[6-(4-Benzylpiperazine-1-carbonyl)-2-phenyl-7H-pyrrolo[2,3-d]pyrimidin-4-ylamino]-ethyl}-acetamide] | 235 to 240 °C (dec.) |
| NC(=O)CNc1nc(-c2ccccc2)nc2[nH]c(C(=O)N3CCN(CCCc4ccccc4)CC3)cc12 [26.15, 2-{2-Phenyl-6-[4-(3-phenylpropyl)-piperazine-1-carbonyl]-7H-pyrrolo[2,3-d]pyrimidin-4-ylamino}-acetamide] | 213 to 217 °C |
| CC(=O)NCCNc1nc(-c2ccccc2)nc2[nH]c(C(=O)N3CCN(CCOc4ccc(Cl)cc4)CC3)cc12 [26.16, N-[2-(6-{4-[2-(4-Chlorophenoxy)-ethyl]-piperazine-1-carbonyl}-2-phenyl-7H-pyrrolo[2,3-d]pyrimidin-4-ylamino)-ethyl]-acetamide] | 227 to 228 °C |
| CC(=O)NCCNc1nc(-c2ccccc2)nc2[nH]c(C(=O)NC3CC4CCC3C4)cc12 (stereo not shown) [26.17] | 280 to 285 °C (dec.) |
| CC(=O)NCCNc1nc(-c2ccccc2)nc2[nH]c(C(=O)Nc3cccc(Oc4ccccc4)c3)cc12 [26.20, 4-(2-Acetylaminoethylamino)-2-phenyl-7H-pyrrolo[2,3-d]pyrimidine-6-carboxylic acid (3-phenoxyphenyl)-amide] | 140 to 142 °C |
| CC(=O)NCCNc1nc(-c2ccccc2)nc2[nH]c(C(=O)N3CCN(CC#Cc4ccccc4)CC3)cc12 [26.21, N-(2-{2-Phenyl-6-[4-(3-phenylprop-2-ynyl)-piperazine-1-carbonyl]-7H-pyrrolo[2,3-d]pyrimidin-4-ylamino}-ethyl)-acetamide] | 213 to 215 °C |
| CC(=O)NCCNc1nc(-c2ccccc2)nc2[nH]c(C(=O)N3C[C@@H](C)N[C@@H](C)C3)cc12 [26.22, N-{2-[6-(cis-3,5-Dimethylpiperazine-1-carbonyl)-2-phenyl-7H-pyrrolo[2,3-d]pyrimidin-4-ylamino]-ethyl}-acetamide] | 138 to 140 °C |
| CC(=O)NCCNc1nc(-c2ccccc2)nc2[nH]c(C(=O)N3C[C@@H](C)N(CCCc4ccccc4)[C@@H](C)C3)cc12 [26.24, N-(2-{6-[cis-3,5-Dimethyl-4-(3-phenylpropyl)-piperazine-1-carbonyl]-2-phenyl-7H-pyrrolo[2,3-d]pyrimidin-4-ylamino}-ethyl)-acetamide] | 86 to 89 °C |
| CC(=O)NCCNc1nc(-c2ccccc2)nc2[nH]c(C(=O)N3CCCC(c4ccccc4)(c4ccccc4)C3)cc12 [26.26, N-{2-[6-(3,3-Diphenylpiperidine-1-carbonyl)-2-phenyl-7H-pyrrolo[2,3-d]pyrimidin-4-ylamino]-ethyl}-acetamide] | 156 to 159 °C (dec.) |
| CC(=O)NCCNc1nc(-c2ccccc2)nc2[nH]c(C(=O)N3C[C@@H](C)N(CCCc4ccccc4)C[C@@H]3C)cc12 [26.30] | 98 to 100 °C |
| CC(=O)NCCNc1nc(-c2ccccc2)nc2[nH]c(C(=O)N3C[C@@H](C)N(Cc4ccccc4)[C@@H](C)C3)cc12 [26.32] | 196 to 198 °C |
| CC(=O)NCCNc1nc(-c2ccccc2)nc2[nH]c(C(=O)N3C[C@@H](C)N(CCc4ccccc4)[C@@H](C)C3)cc12 [26.33, N-{2-[6-(cis-3,5-Dimethyl-4-phenethylpiperazine-1-carbonyl)-2-phenyl-7H-pyrrolo[2,3-d]pyrimidin-4-ylamino]-ethyl}-acetamide] | 110 to 115 °C (dec.) |

Source: patent US20030229067A1, “Pyrrolopyrimidine A2b selective antagonist compounds, their synthesis and use” (priority 2001, published 2003)
